From PubChem BioAssay (NCI)
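Five concentrations, 48 hours, 96-well plates. TGI: concentration producing complete growth inhibition.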

Tests used:
Assay in all cases: inhibition of tumour cell growth, NCI panel, 48 h
[1] = test system: ACHN renal
[2] = test system: SK-OV-3 ovarian
[3] = test system: OVCAR-5 ovarian
[4] = test system: SK-MEL-2 melanoma
[5] = test system: SF-268 CNS
[6] = test system: NCI-H522 lung
[7] = test system: EKVX NSCLC
[8] = test system: DLD-1 colon
[9] = test system: HCT-15 colon
[10] = test system: UACC-62 melanoma
[11] = test system: OVCAR-3 ovarian
[12] = test system: 786-0 renal
[13] = test system: HL-60(TB) leukemia
[14] = test system: U251 CNS
[15] = test system: CAKI-1 renal
[16] = test system: MOLT-4 leukemia
[17] = test system: MALME-3M melanoma
[18] = test system: HOP-92 NSCLC
[19] = test system: M19-MEL melanoma
[20] = test system: NCI-H460 lung
[21] = test system: M14 melanoma
[22] = test system: RXF 393 renal
[23] = test system: HCT-116 colon
[24] = test system: SW-620 colon
[25] = test system: OVCAR-8 ovarian
[26] = test system: OVCAR-4 ovarian
[27] = test system: HCC-2998 colon
[28] = test system: LXFL 529 NSCLC
[29] = test system: SF-539 CNS
[30] = test system: LOX IMVI melanoma
[31] = test system: A549 NSCLC
[32] = test system: COLO 205 colon
[33] = test system: NCI-H226 lung
[34] = test system: SN12C renal
[35] = test system: HT29 colon
[36] = test system: A498 renal
[37] = test system: DMS 273 small cell lung
[38] = test system: SF-295 CNS
[39] = test system: SK-MEL-5 melanoma
[40] = test system: SNB-78 CNS
[41] = test system: KM20L2 colon
[42] = test system: SK-MEL-28 melanoma
[43] = test system: IGROV1 ovarian
[44] = test system: UACC-257 melanoma
[45] = test system: NCI-H23 lung
[46] = test system: RPMI-8226 leukemia
[47] = test system: DMS 114 small cell lung
[48] = test system: UO-31 renal
[49] = test system: TK-10 renal
[50] = test system: SNB-75 CNS
[51] = test system: HOP-62 NSCLC
[52] = test system: HOP-18 NSCLC
[53] = test system: K-562 leukemia
[54] = test system: SR leukemia
[55] = test system: XF 498 CNS
[56] = test system: KM12 colon
[57] = test system: CCRF-CEM leukemia

Measured: TGI

CCCCCCC(C)OC(=O)/C=C(\CC(=O)OC(C)CCCCCC)C(=O)OC(C)CCCCCC (stereo not given)
not listed: [52] | [53] | [54] | [55] | [56] | [57]
> 100 µM: all other assays above

Cc1ccc2c(c1)CNc1ccc(C)cc1CN2
not listed: [17] | [22] | [27] | [36] | [41] | [42] | [44] | [49]
> 100 µM: all other assays above
